Test: Effects of age and gender on PK parameters, 2×400 mg data from studies 103 and 105, fed and fasted
Settings: human, in vivo
Excerpt: This analysis considers the effects of age and gender on three pharmacokinetic (PK) parameters of metaxalone under fed and fasted conditions. The three parameters are: • Cmax: the observed maximum plasma concentration (ng/mL); • AUC(last): the area under the curve (AUC) to the last quantifiable concentration, as measured by the trapezoidal rule (ng-hr/mL); • AUC(inf): the AUC extrapolated to infinity (ng-hr/mL).
Because the distributions of these parameters tend to be skewed, and in accordance with generally accepted practice, all analyses are carried out after computing the natural logarithm (ln) of the values of the PK parameters from individual subjects.
The report is based primarily on two similarly designed studies in which PK parameters were determined under fed and fasted conditions for the 2×400 mg dose of metaxalone: • Study AN151607-103 (hereafter referred to as the 103 study): a four-period, randomized crossover trial with treatment conditions 2×400 mg with food, 2×400 mg without food, 1×800 mg with food, 1×800 mg without food; and • Study ELN151607-105 (hereafter referred to as the 105 study): a two-period, randomized crossover trial with treatment conditions 2×400 mg with food and 2×400 mg without food.
Using the 2×400 mg data from studies 103 and 105, Section 2.2 presents the results of analyses of the effects of age on the fed values of Cmax, AUC(last), and AUC(inf). Section 2.3 similarly reports the results of analyses of fasted values of these parameters using the 2×400 mg data from these two studies. Section 2.4 repeats the analyses of Sections 2.2 and 2.3 using the data from the 1×800 mg treatment of study 103, in combination with the 2×400 mg data from study 105. Finally, Sections 2.5 and 2.6 report the results of similar analyses using the data from studies 101 and 106, respectively.
The primary results are based on the results of linear regression models investigating the effects of age on each PK parameter. Descriptive analyses reporting parametric (Pearson) and nonparametric (Spearman) correlation coefficients between age and each PK parameter are also provided. The Pearson correlation coefficient measures the extent of the linear association between two variables and is most appropriate when the data are approximately bivariate normally distributed with no outliers. The Spearman correlation coefficient is based on the ranks of the variables. It is less sensitive to outliers, but is often also a less sensitive measure of the strength of association.
In study 103, 59 subjects were administered the 2×400 mg dose under fed conditions. The mean age was 26.1 years, with a range from 18 to 50 years. (A total of 64 subjects began the study, of which the average age was 25.6 years. Five subjects were not included in the pharmacokinetic analysis.) In study 105, 44 subjects were administered the 2×400 mg dose under fed conditions. The mean age in study 105 was 56.0 years; with a range from 18 to 81 years.
First, in the combined group of 59+44=103 subjects, Pearson and Spearman correlation coefficients between age and each of the three PK parameters were computed. The correlation coefficients and two-sided p-values from the test of the null hypothesis of no association are shown below in TABLE IIIa:
Linear regression models using the natural logarithm of each of the three PK parameters as the dependent variable and age as the independent variable were fitted in order to estimate the magnitude of the associations with age.
In study 103, the same 59 subjects were administered the 2×400 mg dose under fasted conditions. Similarly, the 44 subjects from study 105 were administered the 2×400 mg dose under fasted conditions.
First, in the combined group of n=103 subjects, Pearson and Spearman correlations between age and each of the three PK parameters were computed. The correlation coefficients and two-sided p-values from the test of the null hypothesis of no association are shown below in TABLE IVa: […]

- Percentage increase in AUC(inf) from age 20 to age 70 (both): 74%
- Percentage increase in AUC(inf), 70-year-old vs 20-year-old (both): 95%
- Percentage increase in AUC(last) from age 20 to age 70 (both): 78%
- Percentage increase in AUC(last), 70-year-old vs 20-year-old (both): 98%
- Percentage increase in Cmax from age 20 to age 70 (both): 84%
- Percentage increase in Cmax, 70-year-old vs 20-year-old (both): 103%
- Pearson correlation coefficients age vs PK parameters, range in magnitude (female): 0.49-0.60
SMILES: Cc1cc(C)cc(OCC2CNC(=O)O2)c1 (stereo not shown) [metaxalone, 5-[(3,5-dimethylphenoxy)methyl]-2 oxazolidinone]

From patent US7714006B1, “Methods of modifying the bioavailability of metaxalone” (King Pharmaceuticals Research & Development, Inc., priority 2001, dated 2010)
